Assay results as given in patent US7163959B2, “Prostagladin derivatives for the treatment of glaucoma or ocular hypertension” (priority 1990, dated 2007).

Columns and labels:
[1] = tested on: rabbit eye; assay: Conjunctival hyperemia after topical application in rabbits; type: in vivo; details: for Degree of hyperemia: topical, conjunctival hyperemia scale 0 to 4, dose 0.5 μg, PGF2α-IE 0.1 μg; for Conjunctival hyperemia, in words: topical (Table IV)
Description: Conjunctival hyperemia after topical application of the test substances was evaluated in rabbits. […] Conjunctival hyperemia was evaluated on a scale from 0 to 4, 0 indicating complete absence of any hyperemia, and 4 indicating marked hyperemia with conjunctival chemosis.

[2] = tested on: healthy human volunteers; assay: Ocular side effects (discomfort, hyperemia) in healthy human volunteers; details: for Irritating effect (ocular discomfort), in words: healthy human volunteers; for Conjunctival/episcleral hyperemia, in words: in man
[3] = tested on: healthy human volunteers; assay: Intraocular pressure (tonometry) in healthy human volunteers; type: in vivo; details: for Effect on intraocular pressure, in words: healthy human volunteers (Table VI); for Intraocular pressure, time after administration 0 hours / Intraocular pressure, time after administration 4 hours / Intraocular pressure, time after administration 6 hours / Intraocular pressure, time after administration 8 hours: healthy human volunteers, Exp eye, dose μg: (2) 1, (7) 10, (9) 1, (10) 5; for Intraocular pressure, time after administration 0 hours: baseline; for Intraocular pressure, time after administration 0 hours / Intraocular pressure, time after administration 4 hours / Intraocular pressure, time after administration 6 hours: (3) 10
Description: (§1) The intraocular pressur (IOP) was determined in animals with a pneumatonometer (Digilab Modular One™, Bio Rad), specially calibrated for the eye of the particular species. The cornea was anaesthetized with 1–2 drops of oxibuprocain before each XOP measurement. In healthy human volunteers IOP was measured with applanation tonometry or with an air puff tonometer (Keeler pulsair). For applanation tonometry either a pneumatonometer (Digilab) or Goldmann's applanation tonometer mounted on a slit lamp microscope was used. The cornea was anaesthetized with oxibuprocain before each measurement with applanation tonometry. No local anaesthesia was employed before measurement with the pulsair tonometer.

[4] = tested on: cynomolgus monkeys; assay: Intraocular pressure (pneumatonometer) in cynomolgus monkeys; type: in vivo, cynomolgus monkey; details: for Intraocular pressure, time after administration 0 hours / Intraocular pressure, time after administration 1–2 hours / Intraocular pressure, time after administration 3–4 hours / Intraocular pressure, time after administration 6 hours: cynomolgus monkeys, experimental eye (E), topical, dose μg: PGF2α-IE 1.5, (1) 3.2, (2) 3.2, (9) 10.4, (10) 3.1, (8) 3.2; for Intraocular pressure, time after administration 0 hours: baseline; for Intraocular pressure lowering effect, in words: monkeys (primates), topical (Table V)
Description: as §1

[5] = tested on: cat eye; assay: Ocular discomfort (irritation) after topical application in cats; details: topical (Table III)
Description: The ocular discomfort after application of the test substances was evaluated in cats. The behaviour of cats after topical application of the test drug was followed and ocular discomfort was graded on a scale from 0 to 3, 0 indicating complete absence of any signs of discomfort, and 3 indicating maximal irritation as obvious from complete lid closure.
Therefore, the cat eye, being very sensitive to prostaglandins was used for evaluating ocular discomfort and the rabbit eye with pronounced tendency to hyperemic reactions was used for evaluating conjunctival and episcleral hyperemia.

[6] = tested on: man; details: clinical studies, Flach and Eliason (1988); cited from earlier work
[7] = tested on: monkey; details: compounds or their esters, Bito et al, 1989; cited from earlier work
[8] = tested on: cat eyes; assay: Intraocular pressure (pneumatonometer) in cats; type: in vivo; details: for Intraocular pressure, time after administration 0 hours / Intraocular pressure, time after administration 1–2 hours / Intraocular pressure, time after administration 3–4 hours / Intraocular pressure, time after administration 6 hours: cat eyes, experimental eye (E), topical, dose μg: (4) 5, (20) 1; for Intraocular pressure, time after administration 0 hours: baseline; for Intraocular pressure lowering effect, in words: cats, topical (Table V)
Description: as §1

CC(C)OC(=O)CCC/C=C\C[C@@H]1[C@@H](/C=C/[C@H](O)CCc2ccccc2)[C@H](O)C[C@@H]1O [Substance 7, 15-(R)-17-phenyl-18,19,20-trinor-PGF2α-isopropylester]
Degree of hyperemia [1]: 2.0 ± 0.0
Irritating effect (ocular discomfort), in words [2]: none of the compounds had any significant irritating effect
Effect on intraocular pressure, in words [3]: significantly reduced the intraocular pressure
Intraocular pressure, time after administration 0 hours [3]: 12.9 ± 0.9 mmHg
Intraocular pressure, time after administration 4 hours [3]: 11.8 ± 0.6 mmHg
Intraocular pressure, time after administration 6 hours [3]: 11.0 ± 0.3 mmHg
Intraocular pressure, time after administration 8 hours [3]: 11.2 ± 1.3 mmHg

16-[4-(methoxy)-phenyl]-17,18,19,20-tetranor-PGF2α-isopropylester [Substance 8]
Intraocular pressure, time after administration 0 hours [4]: E 11.2 ± 0.9 mmHg
Intraocular pressure, time after administration 1–2 hours [4]: 10.5 ± 1.3 mmHg
Intraocular pressure, time after administration 3–4 hours [4]: 9.8 ± 1.4 mmHg
Intraocular pressure, time after administration 6 hours [4]: 9.2 ± 0.9 mmHg

CCCCCC(C=CC1C(O)CC(=O)C1CC=CCCCC(=O)OC(C)C)OC(=O)CC (stereo not shown) [15-propionate-PGE2-IE, reference compound]
Degree of hyperemia [1]: 2.7 ± 0.3

CC(C)OC(=O)CCC/C=C\C[C@@H]1[C@@H](CC[C@@H](O)CCc2ccccc2)[C@H](O)C[C@@H]1O [Substance 9, 13,14-dihydro-17-phenyl-18,19,20-trinor-PGF2α-isopropylester]
Conjunctival hyperemia, in words [1]: advantageous in this respect
Degree of hyperemia [1]: 1.3 ± 0.3
Irritating effect (ocular discomfort), in words [2]: none of the compounds had any significant irritating effect
Conjunctival/episcleral hyperemia, in words [2]: very little if any conjunctival/episcleral hyperemia
Intraocular pressure, time after administration 0 hours [4]: E 11.1 ± 0.9 mmHg
Intraocular pressure, time after administration 1–2 hours [4]: 8.3 ± 0.6 mmHg
Intraocular pressure, time after administration 3–4 hours [4]: 6.9 ± 0.4 mmHg
Intraocular pressure, time after administration 6 hours [4]: 7.7 ± 0.8 mmHg
Effect on intraocular pressure, in words [3]: significantly reduced the intraocular pressure
Intraocular pressure, time after administration 0 hours [3]: 14.2 ± 0.5 mmHg
Intraocular pressure, time after administration 4 hours [3]: 13.3 ± 1.1 mmHg
Intraocular pressure, time after administration 6 hours [3]: 12.2 ± 0.4 mmHg
Intraocular pressure, time after administration 8 hours [3]: 12.5 ± 0.9 mmHg

18-phenyl-19,20-dinor-PGF2α-isopropylester [Substance 10]
Irritating effect (ocular discomfort), in words [2]: none of the compounds had any significant irritating effect
Intraocular pressure, time after administration 0 hours [4]: E 9.7 ± 0.9 mmHg
Intraocular pressure, time after administration 1–2 hours [4]: 9.6 ± 1.1 mmHg
Intraocular pressure, time after administration 3–4 hours [4]: 9.6 ± 0.7 mmHg
Intraocular pressure, time after administration 6 hours [4]: 8.8 ± 0.9 mmHg
Intraocular pressure lowering effect, in words [4]: reduced the intraocular pressure
Effect on intraocular pressure, in words [3]: significantly reduced the intraocular pressure
Intraocular pressure, time after administration 0 hours [3]: 14.4 ± 1.0 mmHg
Intraocular pressure, time after administration 4 hours [3]: 12.2 ± 1.1 mmHg
Intraocular pressure, time after administration 6 hours [3]: 12.4 ± 1.2 mmHg
Intraocular pressure, time after administration 8 hours [3]: 11.9 ± 0.7 mmHg

CCCCC[C@H](O)/C=C/[C@@H]1[C@@H](C/C=C\CCCC(=O)OC(C)C)[C@@H](O)C[C@H]1O [PGF2α-isopropylester, reference compound]
Degree of hyperemia [1]: 2.8 ± 0.2
Intraocular pressure, time after administration 0 hours [4]: E 11.4 ± 0.7 mmHg
Intraocular pressure, time after administration 1–2 hours [4]: 8.3 ± 0.5 mmHg
Intraocular pressure, time after administration 3–4 hours [4]: 8.0 ± 0.6 mmHg
Intraocular pressure, time after administration 6 hours [4]: 9.3 ± 0.8 mmHg

CC(C)OC(=O)CCC/C=C\C[C@H]1C(=O)C=C[C@@H]1CC[C@@H](O)CCc1ccccc1 [Substance 6, 13,14-dihydro-17-phenyl-18,19,20-trinor-PGA2-isopropylester]
Conjunctival hyperemia, in words [1]: advantageous in this respect
Degree of hyperemia [1]: 0.3 ± 0.3
Ocular irritation (discomfort), in words [5]: no or very little irritating effect

CCCCC[C@H](O)/C=C/[C@H]1[C@H](O)CC(=O)[C@@H]1C/C=C\CCCC(=O)O [PGE2]
IOP effect, in words [6]: IOP-lowering effect
IOP effect, in words [7]: lower IOP

CC(C)OC(=O)CCC/C=C\C[C@H]1C(=O)C[C@@H](O)[C@@H]1/C=C/[C@@H](O)CCc1ccccc1 [Substance 5, 17-phenyl-18,19,20-trinor-PGE2-isopropylester]
Degree of hyperemia [1]: 2.7 ± 0.2
Ocular irritation (discomfort), in words [5]: no or very little irritating effect

CC(C)OC(=O)CCC/C=C\C[C@@H]1[C@@H](/C=C/[C@@H](O)CCc2ccccc2)[C@H](O)C[C@@H]1O [Substance 2, 17-phenyl-18,19,20-trinor-PGF2α-isopropylester]
Degree of hyperemia [1]: 2.0 ± 0.3
Irritating effect (ocular discomfort), in words [2]: none of the compounds had any significant irritating effect
Intraocular pressure, time after administration 0 hours [4]: E 12.8 ± 0.6 mmHg
Intraocular pressure, time after administration 1–2 hours [4]: 11.9 ± 0.5 mmHg
Intraocular pressure, time after administration 3–4 hours [4]: 8.6 ± 0.3 mmHg
Intraocular pressure, time after administration 6 hours [4]: 9.5 ± 0.7 mmHg
Intraocular pressure lowering effect, in words [4]: retained IOP lowering effect
Effect on intraocular pressure, in words [3]: significantly reduced the intraocular pressure
Intraocular pressure, time after administration 0 hours [3]: 11.9 ± 1.7 mmHg
Intraocular pressure, time after administration 4 hours [3]: 11.0 ± 0.9 mmHg
Intraocular pressure, time after administration 6 hours [3]: 10.1 ± 0.7 mmHg
Intraocular pressure, time after administration 8 hours [3]: 9.8 ± 0.7 mmHg
Ocular irritation (discomfort), in words [5]: complete loss of ocular irritation

19-phenyl-20-nor-PGF2α-isopropylester [Substance 20]
Intraocular pressure, time after administration 0 hours [8]: E 16.9 ± 1.0 mmHg
Intraocular pressure, time after administration 1–2 hours [8]: 16.6 ± 0.7 mmHg
Intraocular pressure, time after administration 3–4 hours [8]: 15.8 ± 0.8 mmHg
Intraocular pressure, time after administration 6 hours [8]: 18.1 ± 1.2 mmHg
Intraocular pressure lowering effect, in words [8]: reduced the intraocular pressure

CC(C)OC(=O)CCC/C=C\C[C@@H]1[C@@H](/C=C/C(=O)CCc2ccccc2)[C@H](O)C[C@@H]1O [Substance 3, 15-dehydro-17-phenyl-18,19,20-trinor-PGF2α-isopropylester]
Conjunctival hyperemia, in words [1]: advantageous in this respect
Degree of hyperemia [1]: 0.7 ± 0.3
Irritating effect (ocular discomfort), in words [2]: none of the compounds had any significant irritating effect
Conjunctival/episcleral hyperemia, in words [2]: very little if any conjunctival/episcleral hyperemia
Effect on intraocular pressure, in words [3]: significantly reduced the intraocular pressure
Intraocular pressure, time after administration 0 hours [3]: 17.7 ± 0.6 mmHg
Intraocular pressure, time after administration 4 hours [3]: 14.6 ± 0.2 mmHg
Intraocular pressure, time after administration 6 hours [3]: 13.6 ± 0.7 mmHg

CCCCC[C@H](O)/C=C/[C@H]1C=CC(=O)[C@@H]1C/C=C\CCCC(=O)O [PGA2]
IOP effect, in words [7]: lower IOP

16-phenyl-17,18,19,20-tetranor-PGF2α-isopropylester [Substance 1]
Degree of hyperemia [1]: 1.3 ± 0.9
Intraocular pressure, time after administration 0 hours [4]: E 12.7 ± 1.1 mmHg
Intraocular pressure, time after administration 1–2 hours [4]: 11.8 ± 1.1 mmHg
Intraocular pressure, time after administration 3–4 hours [4]: 9.1 ± 0.8 mmHg
Intraocular pressure, time after administration 6 hours [4]: 8.4 ± 0.7. mmHg
Intraocular pressure lowering effect, in words [4]: reduced the intraocular pressure
Ocular irritation (discomfort), in words [5]: irritating
Ocular irritation (discomfort), in words ([5]; listed as 16-phenyl-17,18,19,20-tetranor-PGF2α-IE): clear ocular discomfort

CC(C)OC(=O)CCC/C=C\C[C@@H]1[C@@H](/C=C/[C@@H](O)COc2ccccc2)[C@H](O)C[C@@H]1O [Substance 4, 16-phenoxy-17,18,19,20-tetranor-PGF2α-isopropylester]
Intraocular pressure, time after administration 0 hours [8]: E 20.5 ± 1.2 mmHg
Intraocular pressure, time after administration 1–2 hours [8]: 25.7 ± 1.2 mmHg
Intraocular pressure, time after administration 3–4 hours [8]: 19.2 ± 1.8 mmHg
Intraocular pressure, time after administration 6 hours [8]: 15.0 ± 1.2 mmHg
Intraocular pressure lowering effect, in words [8]: effectively lowers the intraocular pressure
